In patent publication US9505786B2, “Substituted annulated triazines and use thereof” (BAYER INTELLECTUAL PROPERTY GMBH, priority 2012, dated 2016):

Tests used:
aorta rings = test: Vasorelaxant effect in vitro (phenylephrine-contracted aorta rings); conditions: Oryctolagus cuniculus, rabbit aorta rings, organ bath, phenylephrine contraction; read-out: IC50 (concentration needed to reduce the phenylephrine contraction by 50%)
Method: B-1. Vasorelaxant Effect In Vitro
Rabbits are stunned by a blow to the neck and exsanguinated. The aorta is removed, freed from adhering tissue and divided into rings of a width of 1.5 mm. The rings are placed individually under an initial tension in 5 ml organ baths with Krebs-Henseleit solution which is at 37° C., is gassed with carbogen and has the following composition (in each case mM): sodium chloride: 119; potassium chloride: 4.8; calcium chloride dihydrate: 1; magnesium sulphate heptahydrate: 1.4; potassium dihydrogenphosphate: 1.2; sodium bicarbonate: 25; glucose: 10. The contractile force is determined with Statham UC2 cells, amplified and digitalized using A/D transducers (DAS-1802 HC, Keithley Instruments Munich), and recorded in parallel on linear recorders.
To produce a contraction, phenylephrine is added to the bath cumulatively in increasing concentration. After several control cycles, the substance to be investigated is added in each further run in increasing dosage in each case, and the height of the contraction achieved is compared with the height of the contraction reached in the last preceding run. This is used to calculate the concentration needed to reduce the magnitude of the control value by 50% (IC50 value). The standard administration volume is 5 μl; the DMSO content in the bath solution corresponds to 0.1%.

[1] = system: recombinant guanylate cyclase reporter cell line; test: Effect on a recombinant guanylate cyclase reporter cell line; assay type: cell-based
Method: B-2. Effect on a Recombinant Guanylate Cyclase Reporter Cell Line
The cellular activity of the compounds according to the invention is determined using a recombinant guanylate cyclase reporter cell line, as described in F. Wunder et al., Anal. Biochem. 339, 104-112 (2005).

[2] = biological target: human phosphodiesterase 5 (PDE 5) (Homo sapiens (Human), UniProt O76074); test: Inhibition of human phosphodiesterase 5 (PDE 5), SPA assay; assay type: biochemical; conditions: PDE 5 preparation from human platelets, [8-3H] cGMP substrate
Method: B-6. Inhibition of Human Phosphodiesterase 5 (PDE 5)
PDE 5 preparations are obtained from human platelets by disruption (Microfluidizer®, 800 bar, 3 passes), followed by centrifugation (75 000 g, 60 min, 4° C.) and ion exchange chromatography of the supernatant on a Mono Q 10/10 column (linear sodium chloride gradient, elution with a 0.2-0.3M solution of sodium chloride in buffer (20 mM Hepes pH 7.2, 2 mM magnesium chloride). Fractions having PDE 5 activity are combined (PDE 5 preparation) and stored at −80° C.
To determine their in vitro action on human PDE 5, the test substances are dissolved in 100% DMSO and serially diluted. Typically, dilution series (1:3) from 200 μM to 0.091 μM are prepared (resulting final concentrations in the test: 4 μM to 0.0018 μM). In each case 2 μl of the diluted substance solutions are placed into the wells of microtitre plates (Isoplate-96/200W; Perkin Elmer). Subsequently, 50 μl of a dilution of the above-described PDE 5 preparation are added. The dilution of the PDE 5 preparation is chosen such that during the later incubation less than 70% of the substrate are converted (typical dilution: 1:100; dilution buffer: 50 mM Tris/hydrochloric acid pH 7.5, 8.3 mM magnesium chloride, 1.7 mM EDTA, 0.2% BSA). The substrate, [8-^3H] cyclic guanosine-3′,5′-monophosphate (1 μCi/μl; Perkin Elmer) is diluted 1:2000 with assay buffer (50 mM tris/hydrochloric acid pH 7.5, 8.3 mM magnesium chloride, 1.7 mM EDTA) to a concentration of 0.0005 μCi/μl. By addition of 50 μl (0.025 μCi) of the diluted substrate, the enzyme reaction is finally started. The test mixtures are incubated at room temperature for 60 min and the reaction is stopped by adding 25 μl of a suspension of 18 mg/ml yttrium scintillation proximity beads in water (phosphodiesterase beads for SPA assays, RPNQ 0150, Perkin Elmer). The microtitre plates are sealed with a film and left to stand at room temperature for 60 min. Subsequently, the plates are analysed for 30 s per well in a Microbeta scintillation counter (Perkin Elmer). IC50 values are determined using the graphic plot of the substance concentration against percentage PDE 5 inhibition.

| IC50 (aorta rings) [µM] | IC50 [2] [µM] | SMILES | MEC (minimum effective concentration) [1] [nM] |
| --- | --- | --- | --- |
| 0.617 | 0.41 | CC1(C)C(=O)Nc2nc(-c3nn(Cc4ccccc4F)c4ncccc34)nc(C#CC3CC3)c21 [Example 16, 4-(Cyclopropylethynyl)-2-[1-(2-fluorobenzyl)-1H-pyrazolo[3,4-b]pyridin-3-yl]-5,5-dimethyl-5,7-dihydro-6H-pyrrolo[2,3-d]pyrimidin-6-one] | 30 |
| 2.38 | 0.26 | CC1(C)C(=O)Nc2nc(-c3nn(Cc4ccccc4F)c4ncccc34)nc(CCC3CC3)c21 [Example 17, 4-(2-Cyclopropylethyl)-2-[1-(2-fluorobenzyl)-1H-pyrazolo[3,4-b]pyridin-3-yl]-5,5-dimethyl-5,7-dihydro-6H-pyrrolo[2,3-d]pyrimidin-6-one] | 100 |
| 0.836 | 0.15 | CC1(C)C(=O)Nc2nc(-c3nn(Cc4ccccc4F)c4ncccc34)nc(/C=C\C3CC3)c21 [Example 18, 4-[(Z)-2-Cyclopropylvinyl]-2-[1-(2-fluorobenzyl)-1H-pyrazolo[3,4-b]pyridin-3-yl]-5,5-dimethyl-5,7-dihydro-6H-pyrrolo[2,3-d]pyrimidin-6-one] | 100 |
| 0.779 | 0.42 | CC(C)Cc1nc(-c2nn(Cc3ccccc3F)c3ncccc23)nc2c1C(C)(C)C(=O)N2 [Example 29, 2-[1-(2-Fluorobenzyl)-1H-pyrazolo[3,4-b]pyridin-3-yl]-4-isobutyl-5,5-dimethyl-5,7-dihydro-6H-pyrrolo[2,3-d]pyrimidin-6-one] | 100 |
| 0.415 | 0.13 | CC1(C)C(=O)Nc2nc(-c3nn(Cc4ccccc4F)c4ncccc34)nc(CCCC(F)(F)F)c21 [Example 30, 2-[1-(2-Fluorobenzyl)-1H-pyrazolo[3,4-b]pyridin-3-yl]-5,5-dimethyl-4-(4,4,4-trifluorobutyl)-5,7-dihydro-6H-pyrrolo[2,3-d]pyrimidin-6-one] | 100 |
| 0.309 | 0.26 | CC1(C)C(=O)Nc2nc(-c3nn(Cc4ccccc4F)c4ncccc34)nc(CCC(F)(F)F)c21 [Example 31, 2-[1-(2-Fluorobenzyl)-1H-pyrazolo[3,4-b]pyridin-3-yl]-5,5-dimethyl-4-(3,3,3-trifluoropropyl)-5,7-dihydro-6H-pyrrolo[2,3-d]pyrimidin-6-one] | 100 |
| 0.244 | 0.11 | CCCc1nc(-c2nn(Cc3ccccc3F)c3ncccc23)nc2c1C(C)(C)C(=O)N2 [Example 32, 2-[1-(2-Fluorobenzyl)-1H-pyrazolo[3,4-b]pyridin-3-yl]-5,5-dimethyl-4-propyl-5,7-dihydro-6H-pyrrolo[2,3-d]pyrimidin-6-one] | 100 |
| 0.496 | 0.12 | Cc1ncc(-c2nc(-c3nn(Cc4ccccc4F)c4ncccc34)nc3c2C(C)(C)C(=O)N3)s1 [Example 35, 2-[1-(2-Fluorobenzyl)-1H-pyrazolo[3,4-b]pyridin-3-yl]-5,5-dimethyl-4-(2-methyl-1,3-thiazol-5-yl)-5,7-dihydro-6H-pyrrolo[2,3-d]pyrimidin-6-one] | 30 |
| 1.43 | 0.5 | Cc1nc(C(C)C)sc1-c1nc(-c2nn(Cc3ccccc3F)c3ncccc23)nc2c1C(C)(C)C(=O)N2 [Example 37, 2-[1-(2-Fluorobenzyl)-1H-pyrazolo[3,4-b]pyridin-3-yl]-4-(2-isopropyl-4-methyl-1,3-thiazol-5-yl)-5,5-dimethyl-5,7-dihydro-6H-pyrrolo[2,3-d]pyrimidin-6-one] | 1000 |

The next lines start with the compound.

| SMILES | IC50 (aorta rings) [µM] | IC50 [2] [µM] | MEC (minimum effective concentration) [1] [nM] |
| --- | --- | --- | --- |
| O=C1Nc2nc(-c3nn(Cc4ccccc4F)c4ncc(F)cc34)nnc2C12CCCC2 [Example 9, 3′-[5-Fluoro-1-(2-fluorobenzyl)-1H-pyrazolo[3,4-b]pyridin-3-yl]spiro[cyclopentane-1,7′-pyrrolo[2,3-e][1,2,4]triazin]-6′(5′H)-one] | 0.198 | 2 | 30 |
| Cc1ccc(Cn2nc(-c3nnc4c(n3)NC(=O)C4(C)C)c3cc(F)cnc32)c(F)c1 [Example 10, 3-[5-Fluoro-1-(2-fluoro-4-methylbenzyl)-1H-pyrazolo[3,4-b]pyridin-3-yl]-7,7-dimethyl-5,7-dihydro-6H-pyrrolo[2,3-e][1,2,4]triazin-6-one] | 0.276 | 0.015 | 300 |
| COc1cccc(Cn2nc(-c3nnc4c(n3)NC(=O)C4(C)C)c3cc(F)cnc32)c1F [Example 11, 3-[5-Fluoro-1-(2-fluoro-3-methoxybenzyl)-1H-pyrazolo[3,4-b]pyridin-3-yl]-7,7-dimethyl-5,7-dihydro-6H-pyrrolo[2,3-e][1,2,4]triazin-6-one] | 0.237 | 0.25 | 300 |
| Cc1cccc(Cn2nc(-c3nnc4c(n3)NC(=O)C4(C)C)c3cc(F)cnc32)c1F [Example 12, 3-[5-Fluoro-1-(2-fluoro-3-methylbenzyl)-1H-pyrazolo[3,4-b]pyridin-3-yl]-7,7-dimethyl-5,7-dihydro-6H-pyrrolo[2,3-e][1,2,4]triazin-6-one] | 0.677 | 0.58 | 100 |
| CCOCCC1(C)C(=O)Nc2nc(-c3nn(Cc4ccccc4F)c4ncc(F)cc34)nnc21 (stereo not drawn) [Example 13, 7-(2-Ethoxyethyl)-3-[5-fluoro-1-(2-fluorobenzyl)-1H-pyrazolo[3,4-b]pyridin-3-yl]-7-methyl-5,7-dihydro-6H-pyrrolo[2,3-e][1,2,4]triazin-6-one] | 1.59 | 0.66 | 100 |
| CCOc1ccc(-c2nc(-c3nn(Cc4ccccc4F)c4ncccc34)nc3c2C(C)(C)C(=O)N3)cn1 [Example 14, 4-(6-Ethoxypyridin-3-yl)-2-[1-(2-fluorobenzyl)-1H-pyrazolo[3,4-b]pyridin-3-yl]-5,5-dimethyl-5,7-dihydro-6H-pyrrolo[2,3-d]pyrimidin-6-one] | 0.42 | 2 | 300 |
| CC1(C)C(=O)Nc2nc(-c3nn(Cc4ccccc4F)c4ncccc34)nc(-c3ccn[nH]3)c21 [Example 15, 2-[1-(2-Fluorobenzyl)-1H-pyrazolo[3,4-b]pyridin-3-yl]-5,5-dimethyl-4-(1H-pyrazol-5-yl)-5,7-dihydro-6H-pyrrolo[2,3-d]pyrimidin-6-one] | 0.738 | 0.04 | 10 |
| Cc1nc2c(cc1F)c(-c1ncc3c(n1)NC(=O)C3(C)C)nn2Cc1ccccc1F [Example 20, 2-[5-Fluoro-1-(2-fluorobenzyl)-6-methyl-1H-pyrazolo[3,4-b]pyridin-3-yl]-5,5-dimethyl-5,7-dihydro-6H-pyrrolo[2,3-d]pyrimidin-6-one] | 0.345 | 0.92 | 100 |
| Cc1nc(C)c(-c2nc(-c3nn(Cc4ccccc4F)c4ncccc34)nc3c2C(C)(C)C(=O)N3)s1 [Example 36, 4-(2,4-Dimethyl-1,3-thiazol-5-yl)-2-[1-(2-fluorobenzyl)-1H-pyrazolo[3,4-b]pyridin-3-yl]-5,5-dimethyl-5,7-dihydro-6H-pyrrolo[2,3-d]pyrimidin-6-one] | 0.218 | 1.1 | 100 |
